Source: patent US11135320B2, “Radioligands for pretargeted pet imaging and methods of their therapeutic use” (priority 2015, dated 2021)
Values joined by “and” are separate entries in the source; they are usually repeats but may differ in a detail not shown here. Equal entries are not always repeated.

Test system: subcutaneous SW1222 xenografts (A33 antigen-expressing human colorectal carcinoma)
Test: Pretargeted biodistribution with huA33-TCO and ^64Cu-tetrazine radioligand
Format: in vivo, athymic nude mice
Procedure: Female athymic nude mice bearing subcutaneous SW1222 (right shoulder) xenografts (100-150 mm^3, 18-21 days post-inoculation) were administered 100 μg (0.66 nmol) huA33-TCO (in 200 μL 0.9% sterile saline) via intravenous tail vein injection. […] The specific activity of the radiotracer was adjusted using cold ^natCu-Tz-SarAr such that the molar ratio of Tzinjected:huA^33injected=1:1. Animals (n=4 per group) were euthanized by CO2(g) asphyxiation at 1, 4, 12, and 24 h after injection. After asphyxiation, 13 tissues were removed, rinsed in water, dried in air for 5 min, weighed, and counted in a gamma counter calibrated for ^64Cu. Counts were converted into activity using a calibration curve generated from known standards. Count data were background- and decay-corrected to the time of injection, and the percent injected dose per gram (% ID/g) for each tissue sample was calculated by normalization to the total activity injected. Contents within the stomach, small intestine, and large intestine were not removed for the measurements.
Contents within the stomach, small intestine, and large intestine were not removed for the measurements. […] Zeglis, B. M. et al. “A pretargeted PET imaging strategy based on bioorthogonal Diels-Alder click chemistry.” Journal of Nuclear Medicine. 54, 1389-1396 (2013). ©2013 by the Society of Nuclear Medicine and Molecular Imaging, Inc.
Zeglis, B. M. et al. “A pretargeted PET imaging strategy based on bioorthogonal Diels-Alder click chemistry.” Journal of Nuclear Medicine. 54, 1389-1396 (2013). ©2013 by the Society of Nuclear Medicine and Molecular Imaging, Inc.
(§1) Female athymic nude mice bearing subcutaneous SW1222 (right shoulder) xenografts (100-150 mm^3, 18-21 days post-inoculation) were administered 100 μg (0.66 nmol) huA33-TCO (in 200 μL 0.9% sterile saline) via intravenous tail vein injection. After an accumulation interval of 48 h, the same mice were then administered ^64Cu-Tz-SarAr (300-350 μCi in 200 μL 0.9% sterile saline) via intravenous tail vein injection (t=0). The specific activity of the radiotracer was adjusted using cold ^natCu-Tz-SarAr such that the molar ratio of Tzinjected:huA^33injected=1:1. Animals (n=4 per group) were euthanized by CO2(g) asphyxiation at 1, 4, 12, and 24 h after injection. After asphyxiation, tissues were removed, rinsed in water, dried in air for 5 min, weighed, and counted in a gamma counter calibrated for ^64Cu. Counts were converted into activity using a calibration curve generated from known standards. Count data were background- and decay-corrected to the time of injection, and the percent injected dose per gram (% ID/g) for each tissue sample was calculated by normalization to the total activity injected. Contents within the stomach, small intestine, and large intestine were not removed for the measurements.
as §1, with “120” for “48”, “Contents within the stomach, small intestine, and large intestine were not removed for the measurements.” left out

[1] = 48 h accumulation interval, 12 h p.i.
[2] = 48 h accumulation interval, 24 h p.i.
[3] = 120 h accumulation interval, 1 h p.i.
[4] = 120 h accumulation interval, 4 h p.i.
[5] = 120 h accumulation interval, 12 h p.i.
[6] = 120 h accumulation interval, 24 h p.i.

## NC12CNCCNCC(NCc3ccc(CNC(=O)CCCC(=O)NCc4ccc(-c5nncnn5)cc4)cc3)(CNCCNC1)CNCCNC2.[64Cu+2] [^64Cu-Tz-SarAr]
[1]
  Blood activity concentration: 1.81 ± 0.54 % ID/g
  Bone activity concentration: 0.3 ± 0.07 % ID/g
  Heart activity concentration: 0.88 ± 0.33 % ID/g
  Kidney activity concentration: 2.04 ± 0.36 % ID/g
  Large Intestine activity concentration: 0.22 ± 0.08 % ID/g
  Liver activity concentration: 1.08 ± 0.32 % ID/g
  Lung activity concentration: 1.00 ± 0.18 % ID/g
  Muscle activity concentration: 0.15 ± 0.02 % ID/g
  Small Intestine activity concentration: 0.3 ± 0.08 % ID/g
  Spleen activity concentration: 0.56 ± 0.11 % ID/g
  Stomach activity concentration: 0.12 ± 0.04 % ID/g
  Tumor activity concentration: 4.94 ± 1.12 % ID/g
  Tumor/Blood activity concentration ratio: 2.72 ± 1.03
  Tumor/Bone activity concentration ratio: 16.24 ± 5.16
  Tumor/Heart activity concentration ratio: 5.62 ± 2.47
  Tumor/Kidney activity concentration ratio: 2.42 ± 0.7
  Tumor/Large Intestine activity concentration ratio: 22.66 ± 10.19
  Tumor/Liver activity concentration ratio: 4.58 ± 1.69
  Tumor/Lung activity concentration ratio: 4.94 ± 1.45
  Tumor/Muscle activity concentration ratio: 33.88 ± 9.31
  Tumor/Small Intestine activity concentration ratio: 16.47 ± 5.62
  Tumor/Spleen activity concentration ratio: 8.75 ± 2.61
  Tumor/Stomach activity concentration ratio: 41.88 ± 18.35
[2]
  Blood activity concentration: 0.92 ± 0.31 % ID/g
  Bone activity concentration: 0.18 ± 0.05 % ID/g
  Heart activity concentration: 0.45 ± 0.08 % ID/g
  Kidney activity concentration: 1.47 ± 0.43 % ID/g
  Large Intestine activity concentration: 0.16 ± 0.03 % ID/g
  Liver activity concentration: 1.28 ± 0.33 % ID/g
  Lung activity concentration: 1.05 ± 0.51 % ID/g
  Muscle activity concentration: 0.11 ± 0.04 % ID/g
  Small Intestine activity concentration: 0.22 ± 0.07 % ID/g
  Spleen activity concentration: 0.5 ± 0.1 % ID/g
  Stomach activity concentration: 0.15 ± 0.03 % ID/g
  Tumor activity concentration: 4.85 ± 0.67 % ID/g
  Tumor/Blood activity concentration ratio: 5.27±1.92
  Tumor/Bone activity concentration ratio: 26.55 ± 7.58
  Tumor/Heart activity concentration ratio: 10.9 ± 2.55
  Tumor/Kidney activity concentration ratio: 3.31 ± 1.07
  Tumor/Large Intestine activity concentration ratio: 29.58 ± 6.11
  Tumor/Liver activity concentration ratio: 3.8 ± 1.11
  Tumor/Lung activity concentration ratio: 4.61 ± 2.32
  Tumor/Muscle activity concentration ratio: 44.18 ± 17.61
  Tumor/Small Intestine activity concentration ratio: 21.72 ± 7.59
  Tumor/Spleen activity concentration ratio: 9.8 ± 2.47
  Tumor/Stomach activity concentration ratio: 32.81 ± 8.37
[3]
  Blood activity concentration: 1.39 ± 0.19 % ID/g
  Bone activity concentration: 0.21 ± 0.03 % ID/g
  Heart activity concentration: 0.52 ± 0.06 % ID/g
  Kidney activity concentration: 1.80 ± 0.12 % ID/g
  Large Intestine activity concentration: 0.29 ± 0.16 % ID/g
  Liver activity concentration: 1.65 ± 0.07 % ID/g
  Lung activity concentration: 1.41 ± 0.21 % ID/g
  Muscle activity concentration: 0.20 ± 0.03 % ID/g
  Small Intestine activity concentration: 0.34 ± 0.03 % ID/g
  Spleen activity concentration: 0.60 ± 0.13 % ID/g
  Stomach activity concentration: 0.32 ± 0.13 % ID/g
  Tumor activity concentration: 3.61 ± 0.45 % ID/g
  Tumor/Blood activity concentration ratio: 2.61 ± 0.48
  Tumor/Bone activity concentration ratio: 17.27 ± 3.03
  Tumor/Heart activity concentration ratio: 7.00 ± 1.22
  Tumor/Kidney activity concentration ratio: 2.01 ± 0.29
  Tumor/Large Intestine activity concentration ratio: 12.39 ± 7.14
  Tumor/Liver activity concentration ratio: 2.19 ± 0.29
  Tumor/Lung activity concentration ratio: 2.55 ± 0.49
  Tumor/Muscle activity concentration ratio: 18.41 ± 3.47
  Tumor/Small Intestine activity concentration ratio: 10.53 ± 1.58
  Tumor/Spleen activity concentration ratio: 6.02 ± 1.46
  Tumor/Stomach activity concentration ratio: 11.37 ± 4.88
[4]
  Blood activity concentration: 1.05±0.29 % ID/g
  Bone activity concentration: 0.16 ± 0.04 % ID/g
  Heart activity concentration: 0.43 ± 0.11 % ID/g
  Kidney activity concentration: 2.10 ± 0.20 % ID/g
  Large Intestine activity concentration: 0.20 ± 0.13 % ID/g
  Liver activity concentration: 1.16 ± 0.39 % ID/g
  Lung activity concentration: 0.91 ± 0.22 % ID/g
  Muscle activity concentration: 0.11 ± 0.05 % ID/g
  Small Intestine activity concentration: 0.22 ± 0.03 % ID/g
  Spleen activity concentration: 0.50 ± 0.05 % ID/g
  Stomach activity concentration: 0.25 ± 0.12 % ID/g
  Tumor activity concentration: 3.6±0.7 % ID/g and 3.55 ± 0.74 % ID/g
  Tumor/Blood activity concentration ratio: 3.37 ± 1.16
  Tumor/Bone activity concentration ratio: 21.53 ± 7.14
  Tumor/Heart activity concentration ratio: 8.24 ± 2.71
  Tumor/Kidney activity concentration ratio: 1.69 ± 0.39
  Tumor/Large Intestine activity concentration ratio: 17.82 ± 12.22
  Tumor/Liver activity concentration ratio: 3.06 ± 1.2
  Tumor/Lung activity concentration ratio: 3.89 ± 1.23
  Tumor/Muscle activity concentration ratio: 32.58 ± 16.17
  Tumor/Small Intestine activity concentration ratio: 16.22 ± 3.91
  Tumor/Spleen activity concentration ratio: 7.03 ± 1.64
  Tumor/Stomach activity concentration ratio: 14.04 ± 7.07
[5]
  Blood activity concentration: 0.44 ± 0.14 % ID/g
  Bone activity concentration: 0.11 ± 0.04 % ID/g
  Heart activity concentration: 0.34 ± 0.20 % ID/g
  Kidney activity concentration: 2.11 ± 0.13 % ID/g
  Large Intestine activity concentration: 0.09 ± 0.03 % ID/g
  Liver activity concentration: 0.96 ± 0.09 % ID/g
  Lung activity concentration: 0.59 ± 0.27 % ID/g
  Muscle activity concentration: 0.08 ± 0.04 % ID/g
  Small Intestine activity concentration: 0.15 ± 0.07 % ID/g
  Spleen activity concentration: 0.34 ± 0.14 % ID/g
  Stomach activity concentration: 0.09 ± 0.03 % ID/g
  Tumor activity concentration: 3.29 ± 0.40 % ID/g
  Tumor/Blood activity concentration ratio: 7.46 ± 2.54
  Tumor/Bone activity concentration ratio: 29.07 ± 11.14
  Tumor/Heart activity concentration ratio: 9.56 ± 5.64
  Tumor/Kidney activity concentration ratio: 1.56 ± 0.21
  Tumor/Large Intestine activity concentration ratio: 35.43 ± 12.17
  Tumor/Liver activity concentration ratio: 3.43 ± 0.52
  Tumor/Lung activity concentration ratio: 5.55 ± 2.62
  Tumor/Muscle activity concentration ratio: 38.74 ± 20.11
  Tumor/Small Intestine activity concentration ratio: 21.47 ± 9.60
  Tumor/Spleen activity concentration ratio: 9.63 ± 4.03
  Tumor/Stomach activity concentration ratio: 38.07 ± 12.42
[6]
  Blood activity concentration: 0.75 ± 0.23 % ID/g
  Bone activity concentration: 0.25 ± 0.08 % ID/g
  Heart activity concentration: 0.40 ± 0.16 % ID/g
  Kidney activity concentration: 1.90 ± 0.17 % ID/g
  Large Intestine activity concentration: 0.16 ± 0.04 % ID/g
  Liver activity concentration: 1.06 ± 0.16 % ID/g
  Lung activity concentration: 0.85 ± 0.29 % ID/g
  Muscle activity concentration: 0.14 ± 0.05 % ID/g
  Small Intestine activity concentration: 0.17 ± 0.06 % ID/g
  Spleen activity concentration: 0.69 ± 0.17 % ID/g
  Stomach activity concentration: 0.15 ± 0.08 % ID/g
  Tumor activity concentration: 4.34 ± 0.98 % ID/g
  Tumor/Blood activity concentration ratio: 5.74±2.17
  Tumor/Bone activity concentration ratio: 17.16 ± 6.90
  Tumor/Heart activity concentration ratio: 10.76 ± 4.94
  Tumor/Kidney activity concentration ratio: 2.29 ± 0.56
  Tumor/Large Intestine activity concentration ratio: 26.48 ± 8.29
  Tumor/Liver activity concentration ratio: 4.09 ± 1.13
  Tumor/Lung activity concentration ratio: 5.09 ± 2.06
  Tumor/Muscle activity concentration ratio: 30.39 ± 11.94
  Tumor/Small Intestine activity concentration ratio: 25.34 ± 10.4
  Tumor/Spleen activity concentration ratio: 6.26 ± 2.09
  Tumor/Stomach activity concentration ratio: 29.21 ± 17.97
